Results from patent publication US7935507B2, “Method for testing substances on biomatrices” (Humanautocell GmbH, priority 2004, dated 2011).

Test system: CYP2E1
Settings: tissue equivalent strips (hepatocytes + Langerhan's islet cells on matrix) in William's medium E, 37° C.; benzene 0.005, 0.01, 0.02, 0.05 and 0.1 mM, several hours; compared with basic activity before addition
Protocol: The strips are placed in approximately 1 liter of William's medium E, which is agitated. Adequate gas exchange is ensured, and the temperature of the medium is maintained at 37° C.
After the system has equilibrated, a first strip of tissue equivalent is removed and the CYP2E1 activity thereon is determined via the EFCOD test method. Using the said method, the CYP2E1mediated O-dealkylation of 7-ethoxy-4-trifluoromethylcoumarin to 7-hydroxy-4-trifluoromethylcoumarin is determined.
The benzene is allowed to act for several hours, while maintaining the medium in agitation and ensuring the gas exchange. Then the CYP2E1 activity is determined once again in the way described in the foregoing.

Compound: c1ccccc1 [benzene]
- CYP2E1 activity (O-dealkylation of 7-ethoxy-4-trifluoromethylcoumarin to 7-hydroxy-4-trifluoromethylcoumarin): distinct increase of the basic activity with increasing benzene concentration
